Experimental findings from patent publication US4160841A, “Heterocyclic derivatives of 1-(1,3-dioxolan-2-ylmethyl)-1H-imidazoles” (Janssen Pharmaceutica, N.V., priority 1977, dated 1979) are described below.

Where two headings read alike, the source gives them in different places.

The subject of assay [1] is Candida albicans. The experiment in a line: Activity of compounds (I) against vaginal candidosis in rats. Type of assay: in vivo, Female Wistar rats. As to conditions: 336 h, oral once a day for two days from day of infection, active at the 14th day after infection. As to the method:
Experiment A: Activity of compounds (I) against vaginal candidosis in rats Female Wistar rats of ± 100 g body weight were used. They were ovariectomized and hysterectomized and after three weeks of recovery, 100 μg of oestradiol undecylate in sesame oil was given subcutaneously once a week for 3 consecutive weeks. The thus induced pseudooestrus was controlled by microscopic examination of vaginal smears. Food and water were left available ad libitum. The rats were infected intravaginally with 8.10^5 cells of Candida albicans, grown on Sabouraud broth for 48 hours at 37° C. and diluted with saline. The date of infection varied from day +25 to day +32 after surgical intervention, depending on the appearance of signs of induced pseudo-oestrus. The drugs under investigation were administered orally once a day for two days starting from the day of infection. For each experiment there were placebo treated controls. The results were assessed by taking vaginal smears with sterile swabs on several days after the infection. The swabs were put into Sabouraud broth in petri-dishes and incubated for 48 hours at 37° C. If no growth of Candida albicans occured, i.e., when the animals were negative at the end of the experiment, this was due to drug administration because it never happened in placebo treated controls. The tables I and II below give the lowest oral dose of the drug under investigation which was found active at the 14th day after infection.

Assay [2] concerns Candida albicans. The assay can be described thus: Activity of compounds (I) against crop candidosis in turkeys. Type of assay: in vivo. As to conditions: medicated feed for 13 consecutive days from day of infection, crops of 50% of animals completely negative for Candida albicans; for Crop candidosis in Turkeys: ED50 in mg/kg of feed.: Table I. Here is the method: Experiment B: Activity of compounds (I) against crop candidosis in turkeys Turkeys of 14 days old were infected in the crop with 4·10^6 Candida albicans cells, grown on Sabouraud broth for 48 hours at 37° C. and diluted with saline. The volume of the inoculum was 1 ml. The drug under investigation were premixed in 500 mg of lacton and thereafter admixed in 1000 g of meal without any additives. The concentration of the drug under investigation in the meal was expressed in mg/kg. The animals were given the medicated feed for 13 consecutive days starting on the day of infection. At the end of the experiment all animals were sacrificed. At autopsy the crops were removed, emptied and grinded in an ultra-turrax mixer in 15 ml of sterile saline. Colony counting was done on Sabouraud agar and the results given in Tables I and Ii represent the ED50, i.e., the dose of the drug whereby the crops of 50% of the animals were completely negative for Candida albicans.

The mark [3] stands for this setting: Table II, read-out: Vagingal candidosis in rats: lowest effective dose.
Where [4] appears, read: Table I, read-out: Vaginal candidosis in rats: lowest effective dose.

Regarding `Clc1ccc(C2(Cn3ccnc3)OCC(COc3cccc(-n4ccnc4)c3)O2)c(Cl)c1` (stereo not drawn), the minimal effective dose in assay [1] (setting [3]) came to 2.5 mg/kg. With `Clc1ccc(C2(Cn3cncn3)OCC(COc3ccc(-n4ccnc4)cc3)O2)c(Cl)c1` (stereo not drawn), the minimal effective dose in assay [1] (setting [3]) was 1.25 mg/kg. Moreover, in assay [2] (Table II), the “Crop candidosis in Turkeys: ED50 in mg/kg in feed” value came out at 8 mg/kg in feed. For `Clc1ccc([C@@]2(Cn3ccnc3)OC[C@H](COc3ccc(-n4ccnc4)cc3)O2)c(Cl)c1` (relative stereo), the minimal effective dose in assay [1] (setting [4]) was determined as 1.25 mg/kg. Further, the “Crop candidosis in Turkeys: ED50 in mg/kg of feed.” value (from here on “Crop candidosis … of feed.”) in assay [2] is recorded as 8 mg/kg of feed. Taken in the same sequence, the figures for `Clc1ccc([C@@]2(Cn3ccnc3)OC[C@H](COc3ccc(-n4cncn4)cc3)O2)c(Cl)c1` (relative stereo) were 1.25 mg/kg and 16 mg/kg of feed. Taken in the same sequence, the figures for `Clc1ccc([C@@]2(Cn3ccnc3)OC[C@H](COc3ccc(-n4cccc4)cc3)O2)c(Cl)c1` (relative stereo) were 2.5 mg/kg and 125 mg/kg of feed.

Take `Clc1ccc([C@@]2(Cn3ccnc3)OC[C@H](COc3ccc(-n4cccn4)cc3)O2)c(Cl)c1` (relative stereo): the minimal effective dose in assay [1] (setting [4]) came to 2.5 mg/kg. Further, the “Crop candidosis … of feed.” value in assay [2] is listed as 16 mg/kg of feed. With `Cc1nccn1-c1ccc(OC[C@H]2CO[C@](Cn3ccnc3)(c3ccc(Cl)cc3Cl)O2)cc1` (relative stereo), the minimal effective dose in assay [1] (setting [4]) came out at 10 mg/kg. In addition, the “Crop candidosis … of feed.” value in assay [2] is given as 125 mg/kg of feed. The corresponding values for `Clc1ccc([C@@]2(Cn3ccnc3)OC[C@H](COc3ccc(-n4ccnc4-c4ccccc4)cc3)O2)c(Cl)c1` (relative stereo) are 5 mg/kg and 125 mg/kg of feed. For `Cc1n[nH]c(=O)n1-c1ccc(OC[C@H]2CO[C@](Cn3ccnc3)(c3ccc(Cl)cc3Cl)O2)cc1` (relative stereo), the minimal effective dose in assay [1] (setting [4]) was less than 10 mg/kg. Same read-out and setting: the value for `CCCn1ncn(-c2ccc(OC[C@H]3CO[C@](Cn4ccnc4)(c4ccc(Cl)cc4Cl)O3)cc2)c1=O` (relative stereo) was less than 10 mg/kg. In the case of `CC(C)n1ncn(-c2ccc(OC[C@H]3CO[C@](Cn4ccnc4)(c4ccc(Cl)cc4Cl)O3)cc2)c1=O` (relative stereo), the minimal effective dose in assay [1] (setting [4]) was less than 10 mg/kg. Still for that read-out and setting: for `Cc1nn(C)c(=O)n1-c1ccc(OC[C@H]2CO[C@](Cn3ccnc3)(c3ccc(Cl)cc3Cl)O2)cc1` (relative stereo) the value was 1.25 mg/kg. On the same count and under the same terms, for `Cc1nn(C(C)C)c(=O)n1-c1ccc(OC[C@H]2CO[C@](Cn3ccnc3)(c3ccc(Cl)cc3Cl)O2)cc1` (relative stereo) the value was 5 mg/kg.

In the case of `CCn1ncn(-c2ccc(OC[C@H]3CO[C@](Cn4ccnc4)(c4ccc(Cl)cc4Cl)O3)cc2)c1=O` (relative stereo), the minimal effective dose in assay [1] (setting [4]) is 5 mg/kg. For the same compound, the “Crop candidosis … of feed.” value in assay [2] is 31 mg/kg of feed.

With `CCn1nc(C)n(-c2ccc(OC[C@H]3CO[C@](Cn4ccnc4)(c4ccc(Cl)cc4Cl)O3)cc2)c1=O` (relative stereo), in assay [1] (setting [4]), the minimal effective dose was 2.5 mg/kg. The same measure, in the same setting: the value for `Sc1nnnn1-c1ccc(OC[C@H]2CO[C@](Cn3ccnc3)(c3ccc(Cl)cc3Cl)O2)cc1` (relative stereo) was 2.5 mg/kg.

With `CSc1nncn1-c1ccc(OC[C@H]2CO[C@](Cn3ccnc3)(c3ccc(Cl)cc3Cl)O2)cc1` (relative stereo), the minimal effective dose in assay [1] (setting [4]) was 10 mg/kg. Further, in assay [2], the “Crop candidosis … of feed.” value is 8 mg/kg of feed. `CCSc1nccn1-c1ccc(OC[C@H]2CO[C@](Cn3ccnc3)(c3ccc(Cl)cc3Cl)O2)cc1` (relative stereo): the minimal effective dose in assay [1] (setting [4]) worked out at 5 mg/kg. Regarding `CSc1nccn1-c1ccc(OC[C@H]2CO[C@](Cn3ccnc3)(c3ccc(Cl)cc3Cl)O2)cc1` (relative stereo), the minimal effective dose in assay [1] (setting [4]) came to 5 mg/kg. In assay [2], the “Crop candidosis … of feed.” value is 31 mg/kg of feed.

In the case of `CCCSc1nccn1-c1ccc(OC[C@H]2CO[C@](Cn3ccnc3)(c3ccc(Cl)cc3Cl)O2)cc1` (relative stereo), the minimal effective dose in assay [1] (setting [4]) came out at 5 mg/kg. Further, the “Crop candidosis … of feed.” value in assay [2] was 31 mg/kg of feed. In the case of `CC(C)Sc1nccn1-c1ccc(OC[C@H]2CO[C@](Cn3ccnc3)(c3ccc(Cl)cc3Cl)O2)cc1` (relative stereo), in assay [2], the “Crop candidosis … of feed.” value is 31 mg/kg of feed. Still for that read-out and setting: for `CSc1ncc(C)n1-c1ccc(OC[C@H]2CO[C@](Cn3ccnc3)(c3ccc(Cl)cc3Cl)O2)cc1` (relative stereo) the value was 31 mg/kg of feed. For the compound `CSc1ncn(-c2ccc(OC[C@H]3CO[C@](Cn4ccnc4)(c4ccc(Cl)cc4Cl)O3)cc2)n1` (relative stereo), the minimal effective dose in assay [1] (setting [4]) is 1.25 mg/kg. In assay [2], the “Crop candidosis … of feed.” value is given as 16 mg/kg of feed. Consider `Clc1ccc([C@@]2(Cn3ccnc3)OC[C@H](COc3ccc(-n4ncnc4-c4ccccc4)cc3)O2)c(Cl)c1` (relative stereo), for which the minimal effective dose in assay [1] (setting [4]) was determined as 10 mg/kg.

In the case of `CSc1nc(C)n(-c2ccc(OC[C@H]3CO[C@](Cn4ccnc4)(c4ccc(Cl)cc4Cl)O3)cc2)n1` (relative stereo), in assay [1] (setting [4]), the minimal effective dose came to 2.5 mg/kg. On the same count and under the same terms, for `Cc1ccn(-c2ccc(OC[C@H]3CO[C@](Cn4ccnc4)(c4ccc(Cl)cc4Cl)O3)cc2)n1` (relative stereo) the value was 2.5 mg/kg; for `CSc1nnc(C)n1-c1ccc(OC[C@H]2CO[C@](Cn3ccnc3)(c3ccc(Cl)cc3Cl)O2)cc1` (relative stereo), 2.5 mg/kg. With `Cc1ncnn1-c1ccc(OC[C@H]2CO[C@](Cn3ccnc3)(c3ccc(Cl)cc3Cl)O2)cc1` (relative stereo), the minimal effective dose in assay [1] (setting [4]) was 1.25 mg/kg. Moreover, the “Crop candidosis … of feed.” value in assay [2] is reported as 8 mg/kg of feed.

On to `CS(=O)(=O)c1nccn1-c1ccc(OC[C@H]2CO[C@](Cn3ccnc3)(c3ccc(Cl)cc3Cl)O2)cc1` (relative stereo), for which, in assay [1] (setting [4]), the minimal effective dose worked out at 5 mg/kg. Regarding `CCOc1nncn1-c1ccc(OC[C@H]2CO[C@](Cn3ccnc3)(c3ccc(Cl)cc3Cl)O2)cc1` (relative stereo), the minimal effective dose in assay [1] (setting [4]) was found to be 2.5 mg/kg. Also, in assay [2], the “Crop candidosis … of feed.” value is recorded as 31 mg/kg of feed. The corresponding values for `CCc1ncnn1-c1ccc(OC[C@H]2CO[C@](Cn3ccnc3)(c3ccc(Cl)cc3Cl)O2)cc1` (relative stereo) are 5 mg/kg and 8 mg/kg of feed. With `C[S+]([O-])c1nncn1-c1ccc(OC[C@H]2CO[C@](Cn3ccnc3)(c3ccc(Cl)cc3Cl)O2)cc1` (relative stereo), in assay [1] (setting [4]), the minimal effective dose was 2.5 mg/kg. Consider `Cc1nnc([S+](C)[O-])n1-c1ccc(OC[C@H]2CO[C@](Cn3ccnc3)(c3ccc(Cl)cc3Cl)O2)cc1` (relative stereo), for which the minimal effective dose in assay [1] (setting [4]) was 10 mg/kg. In addition, the “Crop candidosis … of feed.” value in assay [2] is reported as 16 mg/kg of feed. In the case of `Clc1ccc([C@@]2(Cn3ccnc3)OC[C@H](COc3ccc(-n4cnnn4)cc3)O2)c(Cl)c1` (relative stereo), the “Crop candidosis … of feed.” value in assay [2] is reported as 31 mg/kg of feed. On to `COc1ccc([C@@]2(Cn3ccnc3)OC[C@H](COc3ccc(-n4ccnc4)cc3)O2)cc1` (relative stereo), for which the minimal effective dose in assay [1] (setting [3]) is 5 mg/kg.
